Here are results for 34 compounds from US12570642B2, “GLP-IR modulating compounds” (Gilead Sciences, Inc., priority 2021, dated 2026).

Chain of GLP-1R (P43220 24-463): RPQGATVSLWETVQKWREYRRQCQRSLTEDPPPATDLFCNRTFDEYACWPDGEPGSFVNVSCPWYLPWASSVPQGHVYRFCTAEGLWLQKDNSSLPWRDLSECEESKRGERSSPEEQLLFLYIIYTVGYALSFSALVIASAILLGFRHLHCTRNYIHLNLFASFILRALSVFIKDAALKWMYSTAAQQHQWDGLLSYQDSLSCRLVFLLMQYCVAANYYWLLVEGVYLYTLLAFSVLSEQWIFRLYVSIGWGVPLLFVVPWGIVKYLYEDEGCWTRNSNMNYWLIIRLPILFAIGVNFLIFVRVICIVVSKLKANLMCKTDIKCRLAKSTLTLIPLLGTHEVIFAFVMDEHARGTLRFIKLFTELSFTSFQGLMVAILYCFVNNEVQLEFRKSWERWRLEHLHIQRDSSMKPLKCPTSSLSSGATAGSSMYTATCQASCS

The target in one test is GLP-1R (Homo sapiens, UniProt P43220). Description: GLP-1R Activation - cAMP Assay. Type of test: cell-based. The note with it: […]; each compound run on one of the two cAMP assays (Assay 1 or Assay 2, not specified). The essentials:
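CHO cells stably expressing GLP-1R, plated at 1,000 cells/well overnight, then equilibrated 1 h in HBSS with 20 mM Hepes and 0.1% BSA. Agonist added as 10-point dose response for 30 min at 37 °C. cAMP measured by HTRF (Cisbio Gs Dynamic kit); EC50 from sigmoidal fit.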
(Changes in cAMP serve as a functional read-out for many G protein-coupled receptors.)
What is called EC50 is the concentration needed to bring the measured effect to its halfway point. Read a high EC50 as a less potent agent. Take `CC(=O)N1C[C@@H](F)[C@H](n2c(Cc3cc(F)c(-c4cccc(OCc5ccc(C#N)cc5F)n4)cc3F)nc3ccc(C(=O)O)cc32)C1` [Example 40]: the EC50 came to 155 nM.

The same test, now with this note: cAMP increase in CHO cells stably expressing GLP-1R; each compound run on one of the two cAMP assays (Assay 1 or Assay 2, not specified).
Take `COCCn1c(Cc2cc(F)c(-c3cccc(OCc4ccc5nccn5c4)n3)cc2F)nc2ccc(C(=O)O)cc21` [Example 30, 2-(2,5-difluoro-4-(6-(imidazo[1,2-a]pyridin-6-ylmethoxy)pyridin-2-yl)benzyl)-1-(2-methoxyethyl)-1H-benzo[d]imidazole-6-carboxylic Acid]: the EC50 is 49.9 nM.
On the same count and under the same terms, for `COCCn1c(Cc2cc(F)c(-c3cccc(OCc4ncc(F)cc4F)n3)cc2F)nc2ccc(C(=O)O)cc21` [Example 31, 2-(4-(6-((3,5-difluoropyridin-2-yl)methoxy)pyridin-2-yl)-2,5-difluorobenzyl)-1-(2-methoxyethyl)-1H-benzo[d]imidazole-6-carboxylic Acid] the value was 30.4 nM.
On the same count and under the same terms, the result for `COCCn1c(Cc2cc(F)c(-c3cccc(OCc4ccc(OC(F)(F)F)cc4)n3)cc2F)nc2ccc(C(=O)O)cc21` [Example 32, 2-(2,5-difluoro-4-(6-((4-(trifluoromethoxy)benzyl)oxy)pyridin-2-yl)benzyl)-1-(2-methoxyethyl)-1H-benzo[d]imidazole-6-carboxylic Acid] reads 3.43 nM; that for `COCCn1c(Cc2cc(F)c(-c3cccc(OCc4ccc(C(F)(F)F)nc4C)n3)cc2F)nc2ccc(C(=O)O)cc21` [Example 33, 2-(2,5-difluoro-4-(6-((2-methyl-6-(trifluoromethyl)pyridin-3-yl)methoxy)pyridin-2-yl)benzyl)-1-(2-methoxyethyl)-1H-benzo[d]imidazole-6-carboxylic Acid], 2.58 nM; that for `COCCn1c(Cc2cc(F)c(-c3cccc(OCc4ccc(C(F)(F)F)nc4Cl)n3)cc2F)nc2ccc(C(=O)O)cc21` [Example 34, 2-(4-(6-((2-chloro-6-(trifluoromethyl)pyridin-3-yl)methoxy)pyridin-2-yl)-2,5-difluorobenzyl)-1-(2-methoxyethyl)-1H-benzo[d]imidazole-6-carboxylic Acid], 3.25 nM.
On the same count and under the same terms, for `COCCn1c(Cc2cc(F)c(-c3cccc(OCc4ccc(OCC(F)(F)F)nc4)n3)cc2F)nc2ccc(C(=O)O)cc21` [Example 35, 2-(2,5-difluoro-4-(6-((6-(2,2,2-trifluoroethoxy)pyridin-3-yl)methoxy)pyridin-2-yl)benzyl)-1-(2-methoxyethyl)-1H-benzo[d]imidazole-6-carboxylic Acid] the value was 2.67 nM; for `COCCn1c(Cc2cc(F)c(-c3cccc(OCc4cnc(-c5cnn(C(F)F)c5)cn4)n3)cc2F)nc2ccc(C(=O)O)cc21` [Example 36], 1.04 nM.
On to `COCCn1c(Cc2cc(F)c(-c3cccc(OCc4cnc(-c5cn(C)nn5)cn4)n3)cc2F)nc2ccc(C(=O)O)cc21` [Example 37, 2-(2,5-difluoro-4-(6-((5-(1-methyl-1H-1,2,3-triazol-4-yl)pyrazin-2-yl)methoxy)pyridin-2-yl)benzyl)-1-(2-methoxyethyl)-1H-benzo[d]imidazole-6-carboxylic Acid], for which the EC50 worked out at 1.97 nM.
`COCCn1c(Cc2cc(F)c(-c3cccc(OCc4cnc(-c5cnn(C)c5)cn4)n3)cc2F)nc2ccc(C(=O)O)cc21` [Example 38, 2-(2,5-difluoro-4-(6-((5-(1-methyl-1H-pyrazol-4-yl)pyrazin-2-yl)methoxy)pyridin-2-yl)benzyl)-1-(2-methoxyethyl)-1H-benzo[d]imidazole-6-carboxylic Acid] displayed an EC50 of 4.02 nM.
`COCCn1c(Cc2cc(F)c(-c3cccc(OCc4ncc(C#N)cc4F)n3)cc2F)nc2ccc(C(=O)O)cc21` [Example 39] displayed an EC50 of 8.98 nM.
Still for that read-out and setting: for `COCCn1c(Cc2cc(F)c(-c3cc(C(F)F)cc(OCc4ccc(C#N)cc4F)n3)cc2F)nc2ccc(C(=O)O)cc21` [Example 41] the value was 4.88 nM.
In the case of `COCCn1c(Cc2cc(F)c(-c3cc(Cl)cc(OCc4ccc(C#N)cc4F)n3)cc2F)nc2ccc(C(=O)O)cc21` [Example 42, 2-(4-(4-chloro-6-((4-cyano-2-fluorobenzyl)oxy)pyridin-2-yl)-2,5-difluorobenzyl)-1-(2-methoxyethyl)-1H-benzo[d]imidazole-6-carboxylic Acid], the EC50 is 4.25 nM.
Same read-out and setting: for `COCCn1c(Cc2cc(F)c(-c3cc(OC)cc(OCc4ccc(C#N)cc4F)n3)cc2F)nc2ccc(C(=O)O)cc21` [Example 43, 2-(4-(6-((4-cyano-2-fluorobenzyl)oxy)-4-methoxypyridin-2-yl)-2,5-difluorobenzyl)-1-(2-methoxyethyl)-1H-benzo[d]imidazole-6-carboxylic Acid] the value was 20.8 nM; for `COCCn1c(Cc2cc(F)c(-c3cc(O)cc(OCc4ccc(C#N)cc4F)n3)cc2F)nc2ccc(C(=O)O)cc21` [Example 44, 2-(4-(6-((4-cyano-2-fluorobenzyl)oxy)-4-hydroxypyridin-2-yl)-2,5-difluorobenzyl)-1-(2-methoxyethyl)-1H-benzo[d]imidazole-6-carboxylic Acid], 0.81 nM; for `COCCn1c(Cc2cc(F)c(-c3cc(N)nc(OCc4ccc(C#N)cc4F)n3)cc2F)nc2ccc(C(=O)O)cc21` [Example 45, 2-(4-(6-amino-2-((4-cyano-2-fluorobenzyl)oxy)pyrimidin-4-yl)-2,5-difluorobenzyl)-1-(2-methoxyethyl)-1H-benzo[d]imidazole-6-carboxylic Acid], 16.7 nM.
Same read-out and setting: for `COCCn1c(Cc2ccc(-c3cccc(OCc4ccc(C#N)cc4F)c3)nc2)nc2ccc(C(=O)O)cc21` [Example 46] the value was 20.9 nM; for `CC(C)(O)C#Cc1cc(C(=O)O)cc2c1nc(Cc1cc(F)c(-c3cccc(OCc4ccc(C#N)cc4F)n3)cc1F)n2C1COCC1(C)C` (stereo not shown) [Example 47], 0.78 nM.
In turn, `CC1(C)COCC1n1c(Cc2cc(F)c(-c3cccc(OCc4ccc(C#N)cc4F)n3)cc2F)nc2c(C#CC3CC3)cc(C(=O)O)cc21` (stereo not shown) [Example 48, 2-(4-(6-((4-cyano-2-fluorobenzyl)oxy)pyridin-2-yl)-2,5-difluorobenzyl)-4-(cyclopropylethynyl)-1-(4,4-dimethyltetrahydrofuran-3-yl)-1H-benzo[d]imidazole-6-carboxylic Acid] gave an EC50 of 0.21 nM.
Still for that read-out and setting: for `COCCn1c(Cc2nc(N)c(-c3cccc(OCc4ccc(C#N)cc4F)n3)cc2F)nc2ccc(C(=O)O)cc21` [Example 49] the value was 45.6 nM.
As to `COCCn1c(Cc2c(F)cc(-c3cccc(OCc4ccc(C#N)cc4F)n3)c3nccn23)nc2ccc(C(=O)O)cc21` [Example 50], it took 5.24 nM to reach a half-maximal effect (EC50).
Same read-out and setting: for `COCCn1c(C(F)c2cc(F)c(-c3cccc(OCc4ccc(C#N)cc4F)n3)cc2F)nc2ccc(C(=O)O)cc21` (stereo not shown) [Example 51] the value was 0.83 nM; for `COCCn1c(C(F)(F)c2cc(F)c(-c3cccc(OCc4ccc(C#N)cc4F)n3)cc2F)nc2ccc(C(=O)O)cc21` [Example 52], 21.3 nM; for `COCCn1c(Cc2c(F)cc(-c3cccc(OCc4ccc(C#N)cc4F)n3)c3ncnn23)nc2ccc(C(=O)O)cc21` [Example 53], 5.11 nM.
Same read-out and setting: the result for `COCCn1c(C(CO)c2cc(F)c(-c3cccc(OCc4ccc(C#N)cc4F)n3)cc2F)nc2ccc(C(=O)O)cc21` (stereo not shown) [Example 54] reads 31.6 nM; that for `COCCn1c(Cc2cc(F)c(-c3cccc(OCc4ccc(C#N)cc4F)n3)cc2F)nc2c(-c3cncnc3)cc(C(=O)O)cc21` [Example 55], 25.8 nM; that for `COCCn1c(Cc2cc(F)c(-c3cccc(OCc4ccc(C#N)cc4F)n3)cc2F)nc2c(-c3cnn(CCN4CCOCC4)c3)cc(C(=O)O)cc21` [Example 56, 2-(4-(6-((4-cyano-2-fluorobenzyl)oxy)pyridin-2-yl)-2,5-difluorobenzyl)-1-(2-methoxyethyl)-4-(1-(2-morpholinoethyl)-1H-pyrazol-4-yl)-1H-benzo[d]imidazole-6-carboxylic Acid], 903 nM.
Still for that read-out and setting: for `Cn1cc(-c2cc(F)c(COc3cccc(-c4cc(F)c(Cc5nc6ccc(C(=O)O)cc6n5[C@H]5COCC5(C)C)cc4F)n3)cn2)cn1` [Example 57] the value was 2.06 nM; for `CC1(C)COC[C@@H]1n1c(Cc2cc(F)c(-c3cccc(OCc4ccc(C#N)cc4F)n3)cc2F)nc2ccc(C(=O)O)cc21` [Example 59], 0.32 nM.
`COCCn1c(Cc2cc(F)c(-c3cccc(OCc4ccc(-n5ccnc5)cc4F)n3)cc2F)nc2ccc(C(=O)O)cc21` [Example 61] showed an EC50 of 0.83 nM.
As to `N#Cc1ccc(COc2cccc(-c3cc(F)c(Cc4nc5ccc(C(=O)O)cc5n4C4CC45CC5)cc3F)n2)c(F)c1` (stereo not shown) [Example 62], the EC50 was 7.32 nM.
As for `N#Cc1ccc(COc2cccc(-c3cc(F)c(Cc4nc5ccc(C(=O)O)cc5n4C4CCCC45CC5)cc3F)n2)c(F)c1` (stereo not shown) [Example 63, 2-(4-(6-((4-cyano-2-fluorobenzyl)oxy)pyridin-2-yl)-2,5-difluorobenzyl)-1-(spiro[2.4]heptan-4-yl)-1H-benzo[d]imidazole-6-carboxylic Acid], the concentration for a half-maximal effect (EC50) came out at 2.55 nM.
`N#Cc1ccc(COc2cccc(-c3cc(F)c(Cc4nc5ccc(C(=O)O)cc5n4C4CCC45CC5)cc3F)n2)c(F)c1` (stereo not shown) [Example 64, 2-(4-(6-((4-cyano-2-fluorobenzyl)oxy)pyridin-2-yl)-2,5-difluorobenzyl)-1-(spiro[2.3]hexan-4-yl)-1H-benzo[d]imidazole-6-carboxylic Acid] yielded an EC50 of 1.28 nM.
The same measure, in the same setting: for `CO[C@@H]1CC[C@@H]1n1c(Cc2cc(F)c(-c3cccc(OCc4ccc(C#N)cc4F)n3)cc2F)nc2ccc(C(=O)O)cc21` [Example 65, 2-(4-(6-((4-cyano-2-fluorobenzyl)oxy)pyridin-2-yl)-2,5-difluorobenzyl)-1-((1S,2R)-2-methoxycyclobutyl)-1H-benzo[d]imidazole-6-carboxylic Acid] the value was 5.05 nM.
